{"source": "patent US20160222021A1", "about": "“ARYL ETHER-BASE KINASE INHIBITORS” (BRISTOL-MYERS SQUIBB COMPANY, priority 2013, published 2016)"}
{"target": "T1, GST-Xa-hAAK1 (Homo sapiens, UniProt Q2M2I8)", "T1 construct": "made in house", "T1 sequence (Q2M2I8 whole entry)": "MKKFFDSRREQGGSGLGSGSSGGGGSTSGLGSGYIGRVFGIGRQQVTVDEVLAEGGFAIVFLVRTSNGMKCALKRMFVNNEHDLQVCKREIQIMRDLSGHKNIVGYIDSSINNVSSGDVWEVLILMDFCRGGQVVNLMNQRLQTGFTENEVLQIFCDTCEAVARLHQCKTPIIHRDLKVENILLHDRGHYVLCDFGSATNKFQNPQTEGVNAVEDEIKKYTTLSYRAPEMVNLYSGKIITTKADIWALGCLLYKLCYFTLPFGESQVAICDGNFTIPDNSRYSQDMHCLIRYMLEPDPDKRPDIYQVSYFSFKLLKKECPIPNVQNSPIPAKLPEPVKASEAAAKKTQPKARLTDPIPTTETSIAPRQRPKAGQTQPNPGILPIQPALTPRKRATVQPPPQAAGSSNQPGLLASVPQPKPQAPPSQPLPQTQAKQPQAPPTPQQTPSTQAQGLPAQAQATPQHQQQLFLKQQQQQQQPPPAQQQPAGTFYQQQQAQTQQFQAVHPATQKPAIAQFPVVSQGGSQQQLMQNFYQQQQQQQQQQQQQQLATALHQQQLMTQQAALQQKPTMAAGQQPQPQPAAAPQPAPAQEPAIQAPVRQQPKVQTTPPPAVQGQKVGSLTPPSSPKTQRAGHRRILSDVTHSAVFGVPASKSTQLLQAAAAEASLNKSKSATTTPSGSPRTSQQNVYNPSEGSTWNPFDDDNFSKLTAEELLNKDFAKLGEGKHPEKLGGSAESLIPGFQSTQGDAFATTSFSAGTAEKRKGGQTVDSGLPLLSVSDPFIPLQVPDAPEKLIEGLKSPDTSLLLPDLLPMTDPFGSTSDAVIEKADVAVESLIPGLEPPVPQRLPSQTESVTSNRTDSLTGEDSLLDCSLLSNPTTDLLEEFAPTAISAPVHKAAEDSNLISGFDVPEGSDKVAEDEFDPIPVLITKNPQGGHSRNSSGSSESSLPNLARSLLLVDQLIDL", "assay": "AAK1 Kinase Assay", "assay_type": "biochemical", "details": "ATP 22 μM; IC50 ranges", "experimental": "(§1) The assays were performed in U-bottom 384-well plates. The final assay volume was 30 μl prepared from 15 μl additions of enzyme and substrates (fluoresceinated peptide (5-FAM)-Aha-[…]-NH2 and ATP) and test compounds in assay buffer (10 mM Tris-HCL pH 7.4, 10 mM MgCl2, 0.01% Tween-20 and 1.0 mM DTT). The reactions were initiated by the combination of bacterially expressed, GST-Xa-hAAK1 with substrates and test compounds. The reactions were incubated at room temperature for 3 hours and terminated by adding 60 μl of 35 mM EDTA buffer to each sample. The reactions were analyzed on the Caliper LabChip 3000 (Caliper, Hopkinton, Mass.) by electrophoretic separation of the fluorescent substrate and phosphorylated product. […] The final concentration of reagents in the assays are ATP, 22 μM; (5-FAM)-Aha-[…]-NH2, 1.5 μM; GST-Xa-hAAK1, 3.5 nM; and DMSO, 1.6%. Dose response curves were generated to determine the concentration required inhibiting 50% of kinase activity (IC50). Compounds were dissolved at 10 mM in dimethylsulfoxide (DMSO) and evaluated at eleven concentrations. IC50 values were derived by non-linear regression analysis.", "units": {"IC50": "µM"}}
{"smiles": "CC(C)CC(C)(N)COc1ccc2c(c1)OCc1cnc(N)cc1-2", "note": "(racemic) [Example 68, 8-((2-amino-2,4-dimethylpentyl)oxy)-5H-chromeno[3,4-c]pyridin-2-amine]", "IC50": "0.001 to 0.01"}
{"smiles": "COC(=O)Nc1cc2c(cn1)COc1c-2ccc(OCC(C)(N)CC(C)C)c1OC", "note": "(racemic) [Example 69, methyl (8-((2-amino-2,4-dimethylpentyl)oxy)-7-methoxy-5H-chromeno[3,4-c]pyridin-2-yl)carbamate]", "IC50": "< 0.001"}
{"smiles": "[2H]C([2H])(Oc1ccc2c(c1)OCc1cnc(NC(C)=O)cc1-2)C(C)(N)CC(C)C", "note": "(racemic) [Example 78, N-(8-((2-amino-1,1-deutero-2,4-dimethylpentyl)oxy)-5H-chromeno[3,4-c]pyridin-2-yl)acetamide]", "IC50": "0.001 to 0.01"}
{"smiles": "COC(=O)Nc1cc2c(cn1)COc1c-2ccc(OCC(C)(N)CC(C)C)c1C#N", "note": "(racemic) [Example 79, methyl (8-((2-amino-2,4-dimethylpentyl)oxy)-7-cyano-5H-chromeno[3,4-c]pyridin-2-yl)carbamate]", "IC50": "< 0.001"}
{"smiles": "[2H]C([2H])(Oc1ccc2c(c1C#N)OCc1cnc(NC(=O)OC)cc1-2)C(C)(N)CC(C)C", "note": "(racemic) [Example 94, methyl (8-((2-amino-1,1-deutero-2,4-dimethylpentyl)oxy)-7-cyano-5H-chromeno[3,4-c]pyridin-2-yl)carbamate]", "IC50": "< 0.001"}
{"smiles": "[2H]C([2H])(Oc1ccc2c(c1)OCc1cnc(NC(=O)OCC)cc1-2)C(C)(N)CC(C)C", "note": "(racemic) [Example 96, ethyl (8-((2-amino-1,1-deutero-2,4-dimethylpentyl)oxy)-5H-chromeno[3,4-c]pyridin-2-yl)carbamate]", "IC50": "0.001 to 0.01"}
{"smiles": "CC(C)C[C@H](N)COc1ccc2c(c1)OC(C1CC1)c1cnccc1-2", "note": "(single isomer, unassigned) [Example 8a]", "IC50": "0.1 to 1.2"}
{"smiles": "CC(C)C[C@@H](N)COc1ccc2c(c1)OC(C1CC1)c1cnccc1-2", "note": "(single isomer, unassigned) [Example 9a]", "IC50": "0.1 to 1.2"}
{"smiles": "CC(C)C[C@@H](N)COc1ccc2c(c1)OC(C1CC1)c1cnccc1-2", "note": "(single isomer, unassigned) [Example 9b]", "IC50": "0.1 to 1.2"}
{"smiles": "CC(C)C[C@H](N)COc1cc2c(cc1Cl)-c1ccncc1[C@H](C(F)(F)F)O2", "note": "(single isomer, unassigned) [Example 27a]", "IC50": "0.001 to 0.01"}
{"smiles": "CC(C)C[C@H](N)COc1ccc2c(c1)OC(C(F)(F)F)c1cnccc1-2", "note": "(single isomer, unassigned; diastereomer 2) [Example 53]", "IC50": "0.01 to 0.1"}
{"smiles": "N[C@@H](COc1ccc2c(c1)OCc1cnccc1-2)Cc1ccccc1", "note": "[Example 2, (R)-1-(5H-chromeno[3,4-c]pyridin-8-yloxy)-3-phenylpropan-2-amine]", "IC50": "0.1 to 1.2"}
{"smiles": "CC[C@@H](N)COc1ccc2c(c1)OCc1cnccc1-2", "note": "[Example 3, (R)-1-(5H-chromeno[3,4-c]pyridin-8-yloxy)butan-2-amine]", "IC50": "0.1 to 1.2"}
{"smiles": "CC(C)C[C@@H](N)COc1ccc2c(c1)OC(C1CC1)c1cnccc1-2", "note": "(some centres unmarked) [Example 9]", "IC50": "0.1 to 1.2"}
{"smiles": "CC(C)C[C@H](N)COc1ccc2c(c1)OC1(COC1)c1cnccc1-2", "note": "[Example 19, (S)-4-methyl-1-(spiro[chromeno[3,4-c]pyridine-5,3′-oxetan]-8-yloxy)pentan-2-amine]", "IC50": "0.1 to 1.2"}
{"smiles": "CC(C)C[C@H](N)COc1cc2oc(=O)c3cnccc3c2cc1Br", "note": "[Example 25, (S)-8-(2-amino-4-methylpentyloxy)-9-bromo-5H-chromeno[3,4-c]pyridin-5-one]", "IC50": "0.001 to 0.01"}
{"smiles": "Cc1cc2c(cn1)COc1cc(OC[C@@H](N)CC(C)C)ccc1-2", "note": "[Example 39, (S)-4-methyl-1-((2-methyl-5H-chromeno[3,4-c]pyridin-8-yl)oxy)pentan-2-amine]", "IC50": "0.1 to 1.2"}
{"smiles": "CC(=O)Nc1nccc2c1C(C)Oc1cc(OC[C@@H](N)CC(C)C)ccc1-2", "note": "(stereo partly drawn) [Example 47, N-(8-(((S)-2-amino-4-methylpentyl)oxy)-5-methyl-5H-chromeno[3,4-c]pyridin-4-yl)acetamide]", "IC50": "0.1 to 1.2"}
{"smiles": "CC(C)C[C@H](N)COc1ccc2c(c1)OC(C(F)(F)F)c1cnccc1-2", "note": "(stereo partly drawn) [Example 49, (2S)-4-methyl-1-((5-(trifluoromethyl)-5H-chromeno[3,4-c]pyridin-8-yl)oxy)pentan-2-amine]", "IC50": "0.01 to 0.1"}
{"smiles": "CC(C)C[C@H](N)COc1ccc2c(c1)OC(C(C)C)c1cnccc1-2", "note": "(stereo partly drawn) [Example 51, (2S)-1-((5-isopropyl-5H-chromeno[3,4-c]pyridin-8-yl)oxy)-4-methylpentan-2-amine]", "IC50": "0.01 to 0.1"}
{"smiles": "CC(C)C[C@H](N)COc1ccc2c(c1)OC(C(C)C)c1cnccc1-2", "note": "(stereo partly drawn) [Example 55, (2S)-1-((5-isopropyl-5H-chromeno[3,4-c]pyridin-8-yl)oxy)-4-methylpentan-2-amine]", "IC50": "0.01 to 0.1"}
{"smiles": "CCNc1cc2c(cn1)COc1cc(OC[C@@H](N)CC(C)C)ccc1-2", "note": "[Example 58, (S)-8-((2-amino-4-methylpentyl)oxy)-N-ethyl-5H-chromeno[3,4-c]pyridin-2-amine]", "IC50": "0.01 to 0.1"}
{"smiles": "CC(C)C[C@H](N)COc1ccc2c(c1)OCc1cnc(NC(=O)C(C)C)cc1-2", "note": "[Example 61, (S)—N-(8-((2-amino-4-methylpentyl)oxy)-5H-chromeno[3,4-c]pyridin-2-yl)isobutyramide]", "IC50": "0.01 to 0.1"}
{"smiles": "CC(=O)Nc1cc2c(cn1)COc1cc(OC[C@@H](N)CC(C)C)cc(F)c1-2", "note": "[Example 62, (S)—N-(8-((2-amino-4-methylpentyl)oxy)-10-fluoro-5H-chromeno[3,4-c]pyridin-2-yl)acetamide]", "IC50": "0.001 to 0.01"}
{"smiles": "CC(C)C[C@H](N)COc1cc2c(cc1Cl)-c1cc(N)ncc1CO2", "note": "[Example 71, (S)-8-((2-amino-4-methylpentyl)oxy)-9-chloro-5H-chromeno[3,4-c]pyridin-2-amine]", "IC50": "0.001 to 0.01"}
{"smiles": "CC(C)C[C@H](N)COc1ccc2c(c1)OCc1cnc(NC(=O)c3cc(F)cc(F)c3)cc1-2", "note": "[Example 72, (S)—N-(8-((2-amino-4-methylpentyl)oxy)-5H-chromeno[3,4-c]pyridin-2-yl)-3,5-difluorobenzamide]", "IC50": "0.1 to 1.2"}
{"target": "T1, GST-Xa-hAAK1", "assay": "AAK1 Kinase Assay", "assay_type": "biochemical", "details": "ATP 22 μM; numeric values", "experimental": "as §1", "units": {"IC50": "µM"}}
{"smiles": "[2H]C([2H])(Oc1ccc2c(c1)OCc1cnc(NC(=O)OC)cc1-2)C(C)(N)CC(C)C", "note": "(racemic) [Example 75, methyl (8-((2-amino-1,1-deutero-2,4-dimethylpentyl)oxy)-5H-chromeno[3,4-c]pyridin-2-yl)carbamate]", "IC50": 0.0023}
{"smiles": "CC(=O)Nc1cc2c(cn1)COc1cc(OC[C@@](C)(N)CC(C)C)ccc1-2", "note": "[Example 45, (S)—N-(8-((2-amino-2,4-dimethylpentyl)oxy)-5H-chromeno[3,4-c]pyridin-2-yl)acetamide]", "IC50": 0.00087}
{"smiles": "CC(=O)Nc1nccc2c1C(C1CC1)Oc1cc(OC[C@@H](N)CC(C)C)ccc1-2", "note": "(stereo partly drawn) [Example 48, N-(8-(((S)-2-amino-4-methylpentyl)oxy)-5-cyclopropyl-5H-chromeno[3,4-c]pyridin-4-yl)acetamide]", "IC50": 1.2}
{"smiles": "CC(C)C[C@H](N)COc1ccc2c(c1)OC(C1CC1)c1c-2ccnc1N", "note": "(stereo partly drawn) [Example 50, 8-(((S)-2-amino-4-methylpentyl)oxy)-5-cyclopropyl-5H-chromeno[3,4-c]pyridin-4-amine]", "IC50": 0.012}
{"smiles": "CNc1nccc2c1COc1cc(OC[C@@H](N)CC(C)C)ccc1-2", "note": "[Example 54, (S)-8-((2-amino-4-methylpentyl)oxy)-N-methyl-5H-chromeno[3,4-c]pyridin-4-amine]", "IC50": 0.305}
{"smiles": "CC1Oc2cc(OC[C@@H](N)CC3CC3)ccc2-c2ccncc21", "note": "(stereo partly drawn) [Example 56, (2S)-1-cyclopropyl-3-((5-methyl-5H-chromeno[3,4-c]pyridin-8-yl)oxy)propan-2-amine]", "IC50": 0.021}
